{"source": "patent US6544787B1", "about": "“Non-myeloablative/lymphoablative conditioning regimen to induce patient anti-donor unresponsiveness in stem cell transplantation” (Hadash Medical Research Services and Development Ltd., priority 1996, dated 2003)", "key": {"[1]": {"system": "patient with ovarian cancer stage IIIc", "assay": "CA-125 during prior chemotherapy, case history", "format": "in vivo, human", "design": "unit not given here"}, "[2]": {"system": "human patients with malignant and non-malignant pathogenic cell diseases", "format": "in vivo", "details": "the other 8 patients who developed GVHD; starting with 2 mg/kg"}, "[3]": {"system": "cultured erythroid colonies", "assay": "β-globin gene mutation assay on cultured erythroid colonies +/- Epo", "format": "cell-based, human", "details": "in the presence of Epo; 7% without Epo", "description": "To clarify the unusual clinical picture of this patient, a β-globin gene mutation assay was performed on cultured erythroid colonies, +/− erythropoietin (Epo). […] Donor cells without Epo amounted to 7%, similar to their percentage in peripheral blood lymphocytes and nucleated BMC, rising to 16% in the presence of Epo."}}, "note": "Values joined by “and” are separate entries in the source; they are usually repeats but may differ in a detail not shown here. Equal entries are not always repeated."}
{"compound": "CC(=O)O[C@H]1C(=O)[C@@]2(C)[C@H]([C@H](OC(=O)c3ccccc3)[C@]3(O)C[C@H](OC(=O)[C@H](O)[C@@H](NC(=O)c4ccccc4)c4ccccc4)C(C)=C1C3(C)C)[C@]1(OC(C)=O)CO[C@@H]1C[C@@H]2O", "note": "[Taxol]", "values": [{"measurement": "CA-125", "setting": "[1]; 175 mg/m^2, after 3 cycles, from 600", "result": 27}, {"measurement": "CA-125", "setting": "[1]; after 10 cycles", "result": "~22"}, {"measurement": "CA-125", "setting": "[1]; total of 28 courses", "result": 152}]}
{"compound": "N.N.[Cl][Pt][Cl]", "note": "[cisplatinum]", "values": [{"measurement": "CA-125", "setting": "[1]; several courses 20 mg/d x3d q3w", "result": "328 and 439.6"}]}
{"compound": "C[C@]12C=CC(=O)C=C1CC[C@@H]1[C@@H]2C(=O)C[C@@]2(C)[C@H]1CC[C@]2(O)C(=O)CO", "note": "[prednisone]", "values": [{"measurement": "response of GVHD to treatment", "setting": "[2]", "result": "responded"}]}
{"compound": "erythropoietin [Epo]", "values": [{"measurement": "Donor cells", "setting": "[3]", "result": 16, "unit": "%"}]}
